Reference: ChEMBL document CHEMBL1137750, “Synthesis and biological evaluation of 4,5-diphenyloxazolone derivatives on route towards selective COX-2 inhibitors” (Eur J Med Chem, 2009)

Legend:
[1] = biological target: T1, Prostaglandin G/H synthase 1 (Ovis aries) (UniProt P05979); experiment: Inhibition of ovine COX1 at 10 uM by enzyme immunoassay relative to control
T1 sequence (whole entry): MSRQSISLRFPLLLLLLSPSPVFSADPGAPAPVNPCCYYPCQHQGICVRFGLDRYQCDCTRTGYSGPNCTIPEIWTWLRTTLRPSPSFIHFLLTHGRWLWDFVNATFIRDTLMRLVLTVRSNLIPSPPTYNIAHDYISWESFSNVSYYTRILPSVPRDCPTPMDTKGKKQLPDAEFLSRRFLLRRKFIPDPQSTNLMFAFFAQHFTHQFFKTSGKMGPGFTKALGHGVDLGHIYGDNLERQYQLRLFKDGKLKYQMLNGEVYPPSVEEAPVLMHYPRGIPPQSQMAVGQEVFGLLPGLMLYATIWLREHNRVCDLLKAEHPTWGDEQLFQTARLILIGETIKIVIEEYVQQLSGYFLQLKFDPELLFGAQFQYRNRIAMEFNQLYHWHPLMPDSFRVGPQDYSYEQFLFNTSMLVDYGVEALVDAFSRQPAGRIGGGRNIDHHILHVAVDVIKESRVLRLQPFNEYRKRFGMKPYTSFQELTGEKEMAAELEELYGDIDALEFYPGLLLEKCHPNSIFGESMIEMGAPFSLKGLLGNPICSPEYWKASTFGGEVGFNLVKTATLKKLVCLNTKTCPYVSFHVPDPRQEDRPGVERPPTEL

[2] = biological target: T1, Prostaglandin G/H synthase 1 (Ovis aries); experiment: Inhibition of ovine COX1 at 100 uM by enzyme immunoassay relative to control
[3] = biological target: T2, Prostaglandin G/H synthase 1 (Ovis aries, UniProt P05979); experiment: Inhibition of ovine COX1 by enzyme immunoassay
T2 sequence (P05979 whole entry): T1 sequence (whole entry)

Ovis aries = organism: Ovis aries; experiment: Selectivity index, raio of IC50 for ovine COX1 to IC50 for ovine COX2
[4] = biological target: T3, Prostaglandin G/H synthase 2 (Homo sapiens) (UniProt P35354); experiment: Inhibition of COX2 in LPS-stimulated human whole blood assessed as PGE2 production by enzyme immunoassay; type: tissue-based; conditions: concentration not given here
T3 sequence (whole entry): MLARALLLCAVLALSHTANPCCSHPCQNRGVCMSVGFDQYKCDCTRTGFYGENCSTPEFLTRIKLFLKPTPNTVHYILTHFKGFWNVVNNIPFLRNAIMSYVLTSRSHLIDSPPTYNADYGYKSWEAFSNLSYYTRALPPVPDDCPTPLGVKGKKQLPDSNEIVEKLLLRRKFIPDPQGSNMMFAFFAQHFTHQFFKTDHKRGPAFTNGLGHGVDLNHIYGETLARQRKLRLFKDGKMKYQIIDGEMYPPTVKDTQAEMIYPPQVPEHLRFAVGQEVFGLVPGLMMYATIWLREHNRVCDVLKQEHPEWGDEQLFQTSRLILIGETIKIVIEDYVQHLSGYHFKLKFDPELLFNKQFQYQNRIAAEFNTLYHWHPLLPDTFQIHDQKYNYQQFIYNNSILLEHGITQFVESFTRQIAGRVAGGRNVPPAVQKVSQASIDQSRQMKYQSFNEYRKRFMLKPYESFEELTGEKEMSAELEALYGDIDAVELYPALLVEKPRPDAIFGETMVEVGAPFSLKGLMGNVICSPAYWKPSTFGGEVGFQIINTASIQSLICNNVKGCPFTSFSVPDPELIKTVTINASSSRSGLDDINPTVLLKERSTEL

[5] = biological target: Prostaglandin G/H synthase 1 (Homo sapiens) (UniProt P23219); experiment: Inhibition of COX1 in human whole blood assessed as TXB2 production at 10 uM by enzyme immunoassay
Chain of Prostaglandin G/H synthase 1 (Homo sapiens) (P23219 whole entry): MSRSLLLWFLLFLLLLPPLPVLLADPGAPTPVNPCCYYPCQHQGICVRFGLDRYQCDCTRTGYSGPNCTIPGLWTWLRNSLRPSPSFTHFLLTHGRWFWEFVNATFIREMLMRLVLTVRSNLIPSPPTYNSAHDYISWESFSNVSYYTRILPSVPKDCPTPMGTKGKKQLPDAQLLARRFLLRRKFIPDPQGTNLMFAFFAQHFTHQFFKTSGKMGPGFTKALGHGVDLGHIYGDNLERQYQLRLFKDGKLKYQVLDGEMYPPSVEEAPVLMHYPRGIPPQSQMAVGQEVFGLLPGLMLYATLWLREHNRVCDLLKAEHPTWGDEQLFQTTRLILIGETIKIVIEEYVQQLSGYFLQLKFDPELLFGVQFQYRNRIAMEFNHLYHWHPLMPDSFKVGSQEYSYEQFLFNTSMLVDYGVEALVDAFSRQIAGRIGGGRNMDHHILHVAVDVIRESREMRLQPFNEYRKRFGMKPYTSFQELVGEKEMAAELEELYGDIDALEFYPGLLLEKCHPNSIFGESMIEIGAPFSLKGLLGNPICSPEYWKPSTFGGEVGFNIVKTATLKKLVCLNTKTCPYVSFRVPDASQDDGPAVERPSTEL

inhibition [1]	inhibition [2]	IC50 [3]	Ratio IC50 (Ovis aries)	inhibition [4]	inhibition [5]	Compound
3.56%	19.3%	> 100 µM	> 50	85%	7%	Cn1c(-c2ccccc2)c(-c2ccc(S(N)(=O)=O)cc2)oc1=O
71.9%						COc1ccc2c(c1)c(CC(=O)O)c(C)n2C(=O)c1ccc(Cl)cc1
